The test system of series [1] is human cytomegalovirus (HCMV) (AD-169). Briefly: microbe, parasite or virus in culture. Format: cell-based. Conditions: read-out: EC50 HCMV (AD-169).
Series [2] relates to human cytomegalovirus (HCMV) (Davis). The series is described as follows: microbe, parasite or virus in culture. To be noted: read-out: EC50 HCMV (Davis). Format: cell-based.
Series [3] concerns varicella-zoster virus (VZV) TK+ (OKA). The series is described as follows: microbe, parasite or virus in culture. Conditions: read-out: EC50 VZV TK+ (OKA). Format: cell-based.
The test system of series [4] is herpes simplex virus 1 (HSV-1) (KOS). Briefly: microbe, parasite or virus in culture. Format: cell-based. Conditions: read-out: EC50 HSV-1 (KOS).
The next series concerns HSV-2 (G). Briefly: microbe, parasite or virus in culture. Format: cell-based, herpes simplex virus 2. Conditions: read-out: EC50 HSV-2 (G).
The subject of another series is HSV-1 (KOS ACV) TK−. Briefly: microbe, parasite or virus in culture. Format: cell-based, herpes simplex virus 1.
For another series, the system named is Vaccinia Virus. The series is described as follows: microbe, parasite or virus in culture. Format: cell-based. Conditions: read-out: EC50 Vaccinia Virus.
In another series the test system is Feline Herpes Virus. Briefly: organism not typed. Format: cell-based. Conditions: read-out: EC50 Feline Herpes Virus.
The next series has as its system Equine Herpes V 1. Format: cell-based, Equine herpes virus.
A further series deals with Equine Herpes V 4. The series is described as follows: Virus infection assay, Equine Herpes V 4, permissive cells. Format: cell-based. As to the method: (§1) 2. Virus Infection (Protocols for: Adeno Virus, Cytomegalo Virus, Poxvirus, Myxo Virus, Equine Herpes Virus)
(§2) Cognate permissive cell lines were used for each virus infection assay.
(§3) Cells were grown in DMEM without phenol red (Sigma-Aldrich) 10% SVF, Pen-strep, 1× sodium pyruvate, 1× Glutamax.
(§4) Virus infection was carried out on permissive cells seeded in either in 96 wells plate or in 6 well plates, in duplicate at one or two MOI (multiplicity of infection) and 7 concentrations of LA6. • Day 0: cells seeded at 10 k per well in Corning Glass Bottom 96 well plates in 200 μl of DMEM without phenol red or 200 k in 6 well plates. • Day 1: cells were treated with LA6 (from 1 to 0.0037 μM by […] dilutions) in duplicate and were infected at different MOI according to the tested virus • Day 2 to day 7: cells were fixed with Formalin 10 min at room temperature. Cells were washed with 200 μL PBS and 100 μL PBS/Hoechst® 33342 (1/1000) per well. 96 well plates were kept at 4° C. in the dark until data acquisition Image acquisition and analysis for high content quantification was performed on a Thermo Cellomics Arrayscan™ VTI microscope using a modified compartmental analysis algorithm for fluorescent virus. For unmodified virus, ECP progression or plaque count was determined visually by double blind analysis.

A further series concerns Vaccinia Virus TK−. Format: cell-based.
The test system of the next series is Adeno virus. Briefly: Virus infection assay, Adeno virus, permissive cells. Format: cell-based. As to the method: as §1, §2, §3, §4
The next series relates to Myxomatosis Virus (MYXV). Format: cell-based.
A further series relates to HBV. The series is described as follows: Anti-HBV activity, Huh7 cells transfected with pHBV1.1×, intra-capsid viral DNA by real-time PCR. Format: cell-based, Hepatitis B virus. To be noted: 7 days, read-out: IC50 (HBV replication) (converted).
The test system of series [5] is VZV-BAC-Luc strain (wild type). Briefly: microbe, parasite or virus in culture. Format: cell-based, varicella zoster virus. Conditions: read-out: approximate EC50, wild type VZV.
Series [6] concerns VZV-BAC-Luc TK− strain (ACV^R). Briefly: microbe, parasite or virus in culture. Format: cell-based, varicella zoster virus. To be noted: read-out: approximate EC50, ACV^R VZV.
Series [7] concerns VZV-BAC-Luc in human fetal skin. Briefly: Human skin organ culture model of VZV replication. Conditions: for VZV yield in skin organ culture compared to vehicle: Day 11, cidofovir 5 μM, 5 at 1 and 5 μM (p<0.0001 vs vehicle). Format: cell-based, varicella zoster virus.
A further series deals with VZV-BAC-Luc. Briefly: SCID-Hu mouse model of VZV replication (human fetal skin xenografts). To be noted: for VZV spread / virus yield (Total Flux) vs Vehicle: once daily Days 0-8, 5 26 mg/kg subcutaneous, cidofovir 10 mg/kg intraperitoneal, yield compared Day 9, p=0.0051. Format: in vivo, CB.17 scid/beige male mice. As to the method: SCID-Hu mouse model of VZV replication. CB.17 scid/beige male mice (Charles River) were implanted subcutaneously with human fetal skin (the same type of specimens used for the skin organ culture assay). After 3-4 weeks engraftment, the skin implants were inoculated with VZV-BAC-Luc or VZV-ORF57-Luc. The mice were divided into groups (N=10-13) for treatment or controls. The positive control antiviral drug was cidofovir, 10 mg/kg/day given by intraperitoneal injection. The negative control was the vehicle Cremophor-DMSO-saline (1:1:8) given by subcutaneous injection. The treatment groups were 5 in Cremophor-DMSO-saline, 26, 13, or 6.5 mg/kg/day, given by subcutaneous injection. Treatment began 2 hours or 3 days after the inoculation surgery and continued daily or alternating days for up to 9 days. The mice were scanned in the IVIS-200 instrument daily from Day 1-10. The mice were weighed before the start of the study and daily during the treatment phase.
Statistical analysis: The results were analyzed for statistical significance by Student's t test or by ANOVA and Dunnett's post hoc test of multiple comparisons (GraphPad Prism).
CB.17 scid/beige male mice were implanted subcutaneously with human fetal skin (the same type of specimens used for the skin organ culture assay). After 3-5 weeks engraftment period, the skin implants were inoculated with VZV-BAC-Luc. The mice were divided into 3 groups of 10-13 mice: vehicle (Cremophor-DMSO-saline 1:1:8), cidofovir 10 mg/kg in saline, and 5 26 mg/kg in Cremophor-DMSO-saline. 5 at 26 mg/kg is the molar equivalent dose to cidofovir 10 mg/kg. Cidofovir was given by the intraperitoneal route, once daily, from Days 0-8. Vehicle and 5 were given by the subcutaneous route, once daily, from Days 0-8. The mice were scanned in the IVIS-200 instrument daily from Day 1-9 and the Total Flux values indicated VZV-infected cells in the skin xenografts (FIG. 3). […] VZV grew normally in the Vehicle group.
In addition, a dose-ranging and delayed treatment assay was included to determine the lowest effective dose (FIGS. 5A and 5B). As before, 5 26 mg/kg was given once daily, by the subcutaneous route, from Days 0-6. This group was compared to Vehicle (Cremophor-DMSO-saline). In the dose ranging assay, 5 high dose (26 mg/kg), medium dose (13 mg/kg) or low dose (6.5 mg/kg) was given once daily, by the subcutaneous route, from Days 3-9. The treatment phase was delayed to Day 3 because this is more clinically relevant.
(In general: In xenograft studies the graft and the host belong to different species.)

The subject of series [8] is HSV-1, HSV-2, HSV-1 (TK−), VV, FHV. Format: cell-based.
A further series relates to HEL cells. Conditions: read-out: Cytotoxicity CC50; concentration reducing cell growth by 50%; HCMV/VZV table.
A short description of series [9]: Weight and condition of mice during treatment in the SCID-Hu model. Conditions: for change in weight during the treatment phase: first study, Days 0-8, 5 26 mg/kg sc, cidofovir 10 mg/kg ip.
A further series can be described thus: in vitro. Conditions: human, Cytotoxicity CC50.
The mark [10] stands for this setting: ARPE-19 cells, 3 days, bioluminescence, estimated by interpolation.
[11] abbreviates: Human alphaherpesvirus 3, ARPE-19, 72 h.

Where two headings read alike, the source gives them in different places.

As usually defined, the EC50 is the concentration giving half of the maximal effect. For orientation: IC50 means the concentration that inhibits the measured activity by half. One may read the CC50 as the concentration that lowers cell viability or growth by half. Regarding “[(Z)-2-[(2,6-diaminopyrimidin-4-yl)oxymethyl]-4-[3-hexadecoxypropoxy (isopropoxycarbonyloxymethoxy)phosphoryl]but-2′-enyl]acetate [Compound (5)]”, the EC50 came out at 1790 nM in [1]; 700 nM in series [2]; 3.5 nM in series [3]; 43 ± 37 nM in series [4]; 15 nM in the series with HSV-2 (G); 8 ± 2 nM with HSV-1 (KOS ACV) TK− (read-out: EC50 HSV-1 (KOS ACV) TK−). Moreover, the EC50 is 115 ± 110 nM in the series with Vaccinia Virus; 350 nM with Feline Herpes Virus; less than 125 nM in the series with Equine Herpes V 1; less than 125 nM with Equine Herpes V 4; less than 30 nM in the series with Vaccinia Virus TK− (read-out: EC50 Vaccinia Virus TK−); less than 30 nM in the series with Vaccinia Virus TK− (read-out: EC50 vaccicnia virus TK-). Besides, the EC50 with Adeno virus is less than 37 nM; in the series with Adeno virus (text statement), less than 37 nM; in the series with Myxomatosis Virus (MYXV), 51 nM; in [5] (setting [10]) it was roughly 10 nM; in series [6] (setting [10]), roughly 10 nM; in series [8] (read-out: EC50 against both tested viruses) it was less than 350 nM. Also, in the series on HBV, the IC50 is 400 nM. Moreover, the “VZV yield in skin organ culture compared to vehicle” value in series [7] is given as “effective”. In addition, the “concentration preventing VZV spread in skin” value in series [7] (skin organ culture) was no less than 1 µM. Besides, the “antiviral effect, delayed treatment, low dose” value in the series with VZV-BAC-Luc (6.5 mg/kg once daily subcutaneous Days 3-9, yield Day 10 p=0.029) is “equally effective”. The “antiviral effect, delayed treatment, medium dose” value with VZV-BAC-Luc (13 mg/kg once daily subcutaneous Days 3-9, yield Day 10 p=0.029) is listed as “equally effective”. Besides, the “Virus yield on Day 7 vs Vehicle” value in the series with VZV-BAC-Luc (26 mg/kg once daily subcutaneous Days 0-6, p=0.008) is listed as “significantly less than the Vehicle group”. For the same compound, the “antiviral effect, delayed treatment, high dose” value in the series with VZV-BAC-Luc (26 mg/kg once daily subcutaneous Days 3-9, yield Day 10 p=0.029) is listed as “also effective”. In addition, in the series with VZV-BAC-Luc, the “VZV spread / virus yield (Total Flux) vs Vehicle” value is “prevented VZV spread”. In addition, the “low dose effectively preventing VZV spread” value in the series on VZV-BAC-Luc (once daily subcutaneous Days 3-9) is on record as 6.5 mg/kg. Besides, the “activity level against HSV-1, HSV-2, HSV-1 (TK−), VV, FHV” value in series [8] was “micromolar and sub-micromolar activities”. In addition, the “Cytotoxicity MCC” value in the series on HEL cell cultures was 60 µM. The CC50 in the series on HEL cells was 660 nM. In series [9], the “change in weight during the treatment phase” value is listed as “did not cause weight loss”. The “overt toxicity (weight and condition of the mice)” value in series [9] (repeat and dose-ranging study, 6.5-26 mg/kg sc) was “did not cause overt toxicity”.

With `Nc1ccn(C[C@@H](CO)OCP(=O)(O)O)c(=O)n1` [Cidofovir, reference compound], the EC50 in series [1] (Human betaherpesvirus 5, AD169, HEL) worked out at 1200 nM; in [2] (Human betaherpesvirus 5, HEL) it was 1000 nM; in series [4] (Human alphaherpesvirus 1, HEL), 4500 nM; with HSV-2 (G) (Human alphaherpesvirus 2, HEL), 1000 nM; in the series on HSV-1 (KOS ACV) TK− (Human alphaherpesvirus 1, read-out: EC50 HSV-1 (KOS ACV) TK−) it was 2800 nM; in the series on Vaccinia Virus (Orthopoxvirus vaccinia, HEL) it was 112000 nM. Besides, the EC50 in series [5] (setting [11]) and in [6] (setting [11]) was roughly 2500 nM in each case. Moreover, the “VZV yield in skin organ culture compared to vehicle” value in series [7] is listed as “effective”. Also, in the series with VZV-BAC-Luc, the “VZV spread / virus yield (Total Flux) vs Vehicle” value was “prevented VZV spread”. Besides, in the series on HEL cell cultures (human), the “Cytotoxicity MCC” value was greater than 100 µM. This compound also showed a CC50 in “in vitro” greater than 100000 nM. The “change in weight during the treatment phase” value in [9] was “moderate weight loss”.

For “[(E)-2-[(2,6-diaminopyrimid in-4-yl)oxymethyl]-4-[3-hexadecoxypropoxy (isopropoxycarbonyloxymethoxy)phosphoryl]but-2′-enyl]acetate [Compound 13]”, the IC50 in the series with HBV is 1600 nM.
